Measurements: US12668600B2 (Kumquat Biosciences Inc., priority 2023, dated 2026)

Key:
Assay type in all cases: biochemical
KRAS G12V = target: T1, KRAS G12V (Homo sapiens, UniProt P01116, G12V); assay: HTRF KRAS-SOS1 interaction assay, KRAS G12V; details: binned ≤2 μM / >2 μM, read-out: Inhibition of KRAS G12V (IC50)
T1 construct: made in house; host or cells: E. coli, e.g. BL21 (DE3)
In short: (§1)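 GST-tagged KRAS (WT or mutant) with anti-GST-Eu donor and His-hSOS1 with anti-6His-XL665 acceptor were combined in 5 mM HEPES pH 7.4, 150 mM NaCl, 1 mM DTT, 0.05% BSA, 0.0025% Igepal. After ~10 min, HTRF was read (ex 337, em 620/665 nm); IC50 from 665/620 ratio.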

KRAS WT = target: T2, KRAS WT (Homo sapiens, UniProt P01116); assay: HTRF KRAS-SOS1 interaction assay, wildtype KRAS; details: binned ≤2 μM / >2 μM, read-out: Inhibition of KRAS WT (IC50)
T2 construct: made in house; host or cells: E. coli, e.g. BL21 (DE3)
In short: as §1

KRAS G12D = target: T3, KRAS G12D (Homo sapiens, UniProt P01116, G12D); assay: HTRF KRAS-SOS1 interaction assay, KRAS G12D; details: binned ≤2 μM / >2 μM, read-out: Inhibition of KRAS G12D (IC50)
T3 construct: made in house; host or cells: E. coli, e.g. BL21 (DE3)
In short: as §1

KRAS G12S = target: T4, KRAS G12S (Homo sapiens, UniProt P01116, G12S); assay: HTRF KRAS-SOS1 interaction assay, KRAS G12S; details: binned ≤2 μM / >2 μM, read-out: Inhibition of KRAS G12S (IC50)
T4 construct: made in house; host or cells: E. coli, e.g. BL21 (DE3)
In short: as §1

Measured: IC50

T3 sequence (P01116 1-188 isoform P01116-2 G12D): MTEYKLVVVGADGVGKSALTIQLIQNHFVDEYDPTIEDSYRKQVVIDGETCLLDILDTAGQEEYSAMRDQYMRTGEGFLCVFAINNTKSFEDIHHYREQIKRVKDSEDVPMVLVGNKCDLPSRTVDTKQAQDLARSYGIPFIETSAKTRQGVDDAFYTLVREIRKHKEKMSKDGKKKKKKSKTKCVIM
T2 sequence (P01116 1-188 isoform P01116-2): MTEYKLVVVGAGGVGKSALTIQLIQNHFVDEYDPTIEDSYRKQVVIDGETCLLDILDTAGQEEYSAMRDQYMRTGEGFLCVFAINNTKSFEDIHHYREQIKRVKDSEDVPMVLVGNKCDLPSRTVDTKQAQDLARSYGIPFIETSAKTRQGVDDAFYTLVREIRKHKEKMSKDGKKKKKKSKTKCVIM
T4 sequence (P01116 1-188 isoform P01116-2 G12S): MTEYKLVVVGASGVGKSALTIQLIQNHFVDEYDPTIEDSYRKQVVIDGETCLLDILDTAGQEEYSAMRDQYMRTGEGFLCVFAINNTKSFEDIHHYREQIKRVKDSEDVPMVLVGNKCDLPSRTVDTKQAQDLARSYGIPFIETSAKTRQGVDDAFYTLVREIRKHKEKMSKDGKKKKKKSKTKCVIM
T1 sequence (P01116 1-188 isoform P01116-2 G12V): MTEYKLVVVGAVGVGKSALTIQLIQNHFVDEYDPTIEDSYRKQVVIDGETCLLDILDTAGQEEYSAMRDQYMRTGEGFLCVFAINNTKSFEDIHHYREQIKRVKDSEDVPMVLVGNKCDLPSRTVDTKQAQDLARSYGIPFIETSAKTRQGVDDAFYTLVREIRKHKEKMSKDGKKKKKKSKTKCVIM

C[C@H](c1nccnc1N)N1CCOc2c(C(F)(F)F)c(-c3ccc(F)c4sc(N)c(C#N)c34)c(F)c3nc(OC[C@@]45CCCN4CC(=C(F)F)C5)nc1c23 [Compound 876, 2-amino-4-(4-((R)-1-(3-aminopyrazin-2-yl)ethyl)-2-(((S)-2-(difluoromethylene)tetrahydro-1H-pyrrolizin-7a(5H)-yl)methoxy)-10-fluoro-8-(trifluoromethyl)-5,6-dihydro-4H-[1,4]oxazepino[5,6,7-de]quinazolin-9-yl)-7-fluorobenzo[b]thiophene-3-carbonitrile]
≤ 2000 nM: all assays above

C[C@H](c1cc(C(F)(F)F)cnc1N)N1CCOc2c(Cl)c(-c3ccc(F)c4sc(N)c(C#N)c34)c(F)c3nc(OC[C@@]45CCCN4C[C@H](F)C5)nc1c23 [Compound 869, 2-amino-4-(4-((R)-1-(2-amino-5-(trifluoromethyl)pyridin-3-yl)ethyl)-8-chloro-10-fluoro-2-(((2R,7aS)-2-fluorotetrahydro-1H-pyrrolizin-7a(5H)-yl)methoxy)-5,6-dihydro-4H-[1,4]oxazepino[5,6,7-de]quinazolin-9-yl)-7-fluorobenzo[b]thiophene-3-carbonitrile]
≤ 2000 nM: all assays above

C[C@H](c1nccnc1N)N1CCOc2c(C(F)(F)F)c(-c3ccc(F)c4sc(N)c(C#N)c34)c(F)c3nc(OC[C@@]45CCCN4C[C@H](F)C5)nc1c23 (single isomer, unassigned) [Compound 760]
≤ 2000 nM: all assays above

N#Cc1c(N)sc2c(F)ccc(-c3c(C(F)(F)F)c4c5c(nc(OC[C@@]67CCCN6C[C@H](F)C7)nc5c3F)N([C@H](CCC3COCCO3)c3cccnc3N)CCO4)c12 (mixture of isomers) [Compound 648, 2-amino-4-(4-((1R)-1-(2-aminopyridin-3-yl)-3-(1,4-dioxan-2-yl)propyl)-10-fluoro-2-(((2R,7aS)-2-fluorotetrahydro-1H-pyrrolizin-7a(5H)-yl)methoxy)-8-(trifluoromethyl)-5,6-dihydro-4H-[1,4]oxazepino[5,6,7-de]quinazolin-9-yl)-7-fluorobenzo[b]thiophene-3-carbonitrile]
≤ 2000 nM: all assays above

C[C@H](c1cccnc1N)N1CCOc2c(C(F)(F)F)c(-c3ccc(F)c4sc(N)c(C#N)c34)c(F)c3nc(OCC4(CN5CCC6(CC5)CC6(F)F)CC4)nc1c23 (atropisomer, axis not shown) [Compound 613, 2-amino-4-((S)-4-((R)-1-(2-aminopyridin-3-yl)ethyl)-2-((1-((1,1-difluoro-6-azaspiro[2.5]octan-6-yl)methyl)cyclopropyl)methoxy)-10-fluoro-8-(trifluoromethyl)-5,6-dihydro-4H-[1,4]oxazepino[5,6,7-de]quinazolin-9-yl)-7-fluorobenzo[b]thiophene-3-carbonitrile]
≤ 2000 nM: all assays above

C[C@H](c1cccnc1N)N1CCOc2c(Cl)c(-c3ncc(F)c4sc(N)c(C#N)c34)c(F)c3nc(OC[C@@]45CCCN4C[C@H](F)C5)nc1c23 (single isomer, unassigned) [Compound 825]
≤ 2000 nM: all assays above

CC(=O)N1CCC(C[C@H](c2cccnc2N)N2CCOc3c(C(F)(F)F)c(-c4ccc(F)c5sc(N)c(C#N)c45)c(F)c4nc(OC[C@@]56CCCN5C[C@H](F)C6)nc2c34)CC1 [Compound 658, 4-(4-((R)-2-(1-acetylpiperidin-4-yl)-1-(2-aminopyridin-3-yl)ethyl)-10-fluoro-2-(((2R,7aS)-2-fluorotetrahydro-1H-pyrrolizin-7a(5H)-yl)methoxy)-8-(trifluoromethyl)-5,6-dihydro-4H-[1,4]oxazepino[5,6,7-de]quinazolin-9-yl)-2-amino-7-fluorobenzo[b]thiophene-3-carbonitrile]
≤ 2000 nM: all assays above

C[C@H](c1cccnc1N)N1CCOc2c(Cl)c(-c3ccc(F)c4sc(N)c(C#N)c34)c(F)c3nc(OC[C@@]45CCCN4CC(CP(C)(C)=O)C5)nc1c23 (mixture of isomers) [Compound 839, 2-amino-4-(4-((R)-1-(2-aminopyridin-3-yl)ethyl)-8-chloro-2-(((7aS)-2-((dimethylphosphoryl)methyl)tetrahydro-1H-pyrrolizin-7a(5H)-yl)methoxy)-10-fluoro-5,6-dihydro-4H-[1,4]oxazepino[5,6,7-de]quinazolin-9-yl)-7-fluorobenzo[b]thiophene-3-carbonitrile]
≤ 2000 nM: all assays above

C=C[C@H](c1cccnc1N)N1CCOc2c(Cl)c(-c3ccc(F)c4sc(N)c(C#N)c34)c(F)c3nc(OC[C@@]45CCCN4C[C@H](F)C5)nc1c23 [Compound 759, 2-amino-4-(4-((R)-1-(2-aminopyridin-3-yl)allyl)-8-chloro-10-fluoro-2-(((2R,7aS)-2-fluorotetrahydro-1H-pyrrolizin-7a(5H)-yl)methoxy)-5,6-dihydro-4H-[1,4]oxazepino[5,6,7-de]quinazolin-9-yl)-7-fluorobenzo[b]thiophene-3-carbonitrile]
≤ 2000 nM: all assays above

C[C@H](c1cc(Cl)cnc1N)N1CCOc2c(C(F)(F)F)c(-c3ccc(F)c4sc(N)c(C#N)c34)c(F)c3nc(OCC4(CN5CCC6(CC5)CC6(F)F)CC4)nc1c23 [Compound 679, 2-amino-4-(4-((R)-1-(2-amino-5-chloropyridin-3-yl)ethyl)-2-((1-((1,1-difluoro-6-azaspiro[2.5]octan-6-yl)methyl)cyclopropyl)methoxy)-10-fluoro-8-(trifluoromethyl)-5,6-dihydro-4H-[1,4]oxazepino[5,6,7-de]quinazolin-9-yl)-7-fluorobenzo[b]thiophene-3-carbonitrile]
≤ 2000 nM: all assays above

N#Cc1c(N)sc2c(F)ccc(-c3c(Cl)c4c5c(nc(OC[C@@]67CCCN6C[C@H](F)C7)nc5c3F)N([C@H](/C=C/C3CC3)c3cccnc3N)CCO4)c12 [Compound 676, 2-amino-4-(4-((R,E)-1-(2-aminopyridin-3-yl)-3-cyclopropylallyl)-8-chloro-10-fluoro-2-(((2R,7aS)-2-fluorotetrahydro-1H-pyrrolizin-7a(5H)-yl)methoxy)-5,6-dihydro-4H-[1,4]oxazepino[5,6,7-de]quinazolin-9-yl)-7-fluorobenzo[b]thiophene-3-carbonitrile]
≤ 2000 nM: all assays above
